Assay results published in patent US9050285B2, “Recombinant bacterium capable of eliciting an immune response against Streptococcus pneumoniae” (The United States of America National Institutes of Health …, priority 2008, dated 2015).

Columns and labels:
Assay type in all cases: cell-based
χ9639(pYA4088) = assay: Minimum inhibitory concentrations of antibiotics for RASV-Sp strain χ9639(pYA4088); conditions: Salmonella Typhi strain χ9639(pYA4088); for MIC: Salmonella enterica, read-out: Minimum inhibitory concentration
Text: (§1) Master seed and working seed banks of each vaccine organism in separate vials have been prepared for frozen storage in vegetable-based cryopreservative. […] Antibiotic sensitivity testing has confirmed that these strains are sensitive to ciprofloxacin, ampicillin, ceftriaxone, trimethoprim/sulfamethoxazole (Table 13). Ampicillin, ciprofloxacin, ceftriaxone and trimethoprim/sulfamethoxazole are typically tested for minimum inhibitory concentrations (MICs) for Salmonella.

χ9640(pYA4088) = assay: Minimum inhibitory concentrations of antibiotics for RASV-Sp strain χ9640(pYA4088); conditions: Salmonella Typhi strain χ9640(pYA4088); for MIC: Salmonella enterica, read-out: Minimum inhibitory concentration
Text: as §1

χ9633(pYA4088) = assay: Minimum inhibitory concentrations of antibiotics for RASV-Sp strain χ9633(pYA4088); conditions: Salmonella Typhi strain χ9633(pYA4088)
Text: as §1

## CC1(C)S[C@@H]2[C@H](NC(=O)[C@H](N)c3ccccc3)C(=O)N2[C@H]1C(=O)O [ampicillin]
χ9639(pYA4088)
  MIC: < 2 µg/mL
χ9640(pYA4088)
  MIC: < 2 µg/mL

## CO/N=C(\C(=O)N[C@@H]1C(=O)N2C(C(=O)O)=C(CSc3nc(=O)c(=O)[nH]n3C)CS[C@H]12)c1csc(N)n1 [ceftriaxone]
χ9639(pYA4088)
  MIC: < 1 µg/mL
χ9640(pYA4088)
  MIC: < 1 µg/mL

## O=C(O)c1cn(C2CC2)c2cc(N3CCNCC3)c(F)cc2c1=O [ciprofloxacin]
χ9639(pYA4088)
  MIC: < 0.25 µg/mL
χ9640(pYA4088)
  MIC: < 0.25 µg/mL

## trimethroprim-sulfamethoxazole
χ9633(pYA4088)
  Minimum inhibitory concentration: <20 µg/mL
χ9639(pYA4088)
  Minimum inhibitory concentration: <20 µg/mL
χ9640(pYA4088)
  Minimum inhibitory concentration: <20 µg/mL
